Measured values taken from patent US8551984B2, “Aminopyrimidines as SYK inhibitors” (Merck Sharp & Dohme Corp., priority 2009, dated 2013).
pIC50: −log10 of the molar value.

Molecular target: recombinant human SYK (GST-hSYK fusion protein) (Homo sapiens, UniProt P43405)
Test: biochemical
Conditions: rhSYK Activity (IC50), recombinant human GST-SYK 5 pM, ATP 25 μM, biotinylated substrate peptide 250 nM, HTRF, 10-dose titration
Source text: Homogeneous Time-Resolved Fluorescence (HTRF) Assay for the Recombinant Human SYK Enzyme:

Row | SMILES | pIC50
1 | Cc1cc(Nc2nccc(OCCCCOCc3ccccc3)n2)cc(-c2cnc(C3(O)CCC3)s2)c1 [Example 94A-11] | 6.00 to 7.00
2 | COCCCOc1ccnc(Nc2cc(C)cc(-c3cnc(C4(O)CCC4)s3)c2)n1 [Example 94A-12] | > 7.00
3 | Cc1cc(Nc2nccc(OCCCOCc3ccccc3)n2)cc(-c2cnc(C3(O)CCC3)s2)c1 [Example 94A-13] | 6.00 to 7.00
4 | COCCOc1ccnc(Nc2cc(C)cc(-c3cnc(C4(O)CCC4)s3)c2)n1 [Example 94A-14] | > 7.00
5 | Cc1cc(Nc2nccc(OCC3CCOC3)n2)cc(-c2cnc(C3(O)CCC3)s2)c1 (stereo not drawn) [Example 94A-15] | > 7.00
6 | CCOC(=O)C1CCC(Oc2ccnc(Nc3cc(C)cc(-c4cnc(C5(O)CCC5)s4)c3)n2)CC1 (stereo not drawn) [Example 94A-16, ethyl 4-{[2-({3-[2-(1-hydroxycyclobutyl)-1,3-thiazol-5-yl]-5-methylphenyl}-amino)pyrimidin-4-yl]oxy}cyclohexanecarboxylate] | 6.00 to 7.00
7 | Cc1cc(Nc2nccc(OC3CCOCC3)n2)cc(-c2cnc(C3(O)CCC3)s2)c1 [Example 94A-17] | > 7.00
8 | Cc1cc(Nc2nccc(OC3CCC(N)CC3)n2)cc(-c2cnc(C3(O)CCC3)s2)c1 (stereo not drawn) [Example 94A-18] | > 7.00
9 | Cc1cc(Nc2nccc(OC(C)(C)C(=O)OC(C)(C)C)n2)cc(-c2cnc(C3(O)CCC3)s2)c1 [Example 94A-25, tert-butyl 2-{[2-({3-[2-(1-hydroxycyclobutyl)-1,3-thiazol-5-yl]-5-methylphenyl}amino)-pyrimidin-4-yl]oxy}-2-methylpropanoate] | 6.00 to 7.00
10 | Cc1cc(Nc2nccc(OC3CCCNC3)n2)cc(-c2cnc(C3(O)CCC3)s2)c1 (stereo not drawn) [Example 94A-26] | > 7.00
11 | Cc1cc(Nc2nccc(OC3CCOC3)n2)cc(-c2cnc(C3(O)CCC3)s2)c1 (stereo not drawn) [Example 94A-29] | > 7.00
12 | Cc1cc(Nc2nccc(OC3CCC3)n2)cc(-c2cnc(C3(O)CCC3)s2)c1 [Example 94A-30] | > 7.00
13 | Cc1cc(Nc2nccc(OC3CCCC3)n2)cc(-c2cnc(C3(O)CCC3)s2)c1 [Example 94A-31] | > 7.00
14 | Cc1cc(Nc2nccc(OC3CCNCC3)n2)cc(-c2cnc(C3(O)CCC3)s2)c1 [Example 94A-33] | > 7.00
15 | Cc1cc(Nc2nccc(OCc3ccccc3)n2)cc(-c2cnc(C(C)(O)C(F)(F)F)s2)c1 (stereo not drawn) [Example 94B-1, 2-[5-(3-{[4-(benzyloxy)pyrimidin-2-yl]-amino}-5-methylphenyl)-1,3-thiazol-2-yl]-1,1,1-trifluoropropan-2-ol] | > 7.00
16 | Cc1cc(Nc2nccc(OC3CCC(OCc4ccccc4)CC3)n2)cc(-c2cnc(C(C)(O)C(F)(F)F)s2)c1 (stereo not drawn) [Example 94B-3, 2-(5-{3-[(4-{[4-(benzyloxy)cyclohexyl]oxy}pyrimidin-2-yl)amino]-5-methylphenyl}-1,3-thiazol-2-yl)-1,1,1-trifluoropropan-2-ol] | 6.00 to 7.00
17 | Cc1cc(Nc2nccc(OC3CCNCC3)n2)cc(-c2cnc(C(C)(O)C(F)(F)F)s2)c1 (stereo not drawn) [Example 94B-6] | > 7.00
18 | CC(O)c1ncc(-c2cccc(Nc3nccc(OC4CCNCC4)n3)c2)s1 (stereo not drawn) [Example 94B-10] | > 7.00
19 | Cc1cc(Nc2nccc(OC3CCC(C(=O)O)CC3)n2)cc(-c2cnc(C3(O)CCC3)s2)c1 (stereo not drawn) [Example 97, 4-{[2-({3-[2-(1-hydroxycyclobutyl)-1,3-thiazol-5-yl]-5-methylphenyl}amino)pyrimidin-4-yl]oxy}cyclohexanecarboxylic acid] | > 7.00

Row | SMILES | pIC50
20 | Cc1cc(Nc2nccc(Cl)n2)cc(-c2cnc(C(C)(O)C(F)(F)F)s2)c1 (stereo not drawn) [Example 98, 2-(5-{3-[(4-chloropyrimidin-2-yl)amino]-5-methylphenyl}-1,3-thiazol-2-yl)-1,1,1-trifluoropropan-2-ol] | > 7.00
21 | Cc1cc(Nc2nccc(C)n2)cc(-c2cnc(C3(O)CCC3)s2)c1 [Example 100A-2] | > 7.00
22 | Cc1cc(Nc2ncccn2)cc(-c2cnc(C3(O)CCC3)s2)c1 [Example 100A-3] | 6.00 to 7.00
23 | Cc1cc(Nc2ncc(F)cn2)cc(-c2cnc(C3(O)CCC3)s2)c1 [Example 100A-4] | 6.00 to 7.00
24 | CCc1cnc(Nc2cc(C)cc(-c3cnc(C4(O)CCC4)s3)c2)nc1 [Example 100A-6] | 6.00 to 7.00
25 | Cc1cc(Nc2nccc(C#N)n2)cc(-c2cnc(C3(O)CCC3)s2)c1 [Example 100A-7] | > 7.00
26 | Cc1cc(Nc2ncc(C)c(N(C)C)n2)cc(-c2cnc(C3(O)CCC(C(=O)O)C(C)(C)C3)s2)c1 (stereo not drawn) [Example 100A-16] | > 7.00
27 | Cc1cc(Nc2nccc(C(C)(C)O)n2)cc(-c2cnc(C3(O)CCC(C(=O)O)C(C)(C)C3)s2)c1 (stereo not drawn) [Example 100A-17] | > 7.00
28 | Cc1cc(Nc2nccc(C(F)C3CC3)n2)cc(-c2cnc(C3(O)CCC(C(=O)O)C(C)(C)C3)s2)c1 (stereo not drawn) [Example 100A-20] | > 7.00
29 | Cc1cc(Nc2nccc(C=CC(C)(C)O)n2)cc(-c2cnc(C3(O)CCC(C(=O)O)C(C)(C)C3)s2)c1 (stereo not drawn) [Example 100A-23] | > 7.00
30 | Cc1cc(Nc2nccc(C(C)(O)C3CC3)n2)cc(-c2cnc(C3(O)CCC(C(=O)O)C(C)(C)C3)s2)c1 (stereo not drawn) [Example 100A-24] | > 7.00
31 | COC(=O)[C@H]1CC[C@](O)(c2ncc(-c3cc(C)cc(Nc4ncc5c(n4)CCC5)c3)s2)CC1(C)C [Example 100A-29] | 6.00 to 7.00
32 | COc1ccnc(Nc2cc(C)cc(-c3cnc(C(C)(O)C(F)(F)F)s3)c2)n1 (stereo not drawn) [Example 100B-1] | > 7.00
33 | COc1cnc(Nc2cc(C)cc(-c3cnc(C(C)(O)C(F)(F)F)s3)c2)nc1 (stereo not drawn) [Example 100B-3] | 6.00 to 7.00
34 | Cc1cc(Nc2ncccn2)cc(-c2cnc(C(C)(O)C(F)(F)F)s2)c1 (stereo not drawn) [Example 101, 1,1,1-trifluoro-2-{5-[3-methyl-5-(pyrimidin-2-ylamino)phenyl]-1,3-thiazol-2-yl}propan-2-ol] | 6.00 to 7.00
35 | COC(=O)[C@H]1CC[C@](O)(c2ncc(-c3cc(C)cc(Nc4nccc(C(C)(C)C)n4)c3)s2)CC1(C)C [Example 101-3] | > 7.00
36 | C=Cc1ccnc(Nc2cc(C)cc(-c3cnc([C@@]4(O)CC[C@H](C(=O)OC)C(C)(C)C4)s3)c2)n1 [Example 101-5] | > 7.00
37 | COC(=O)[C@H]1CC[C@](O)(c2ncc(-c3cc(C)cc(Nc4nccc(C(N)=O)n4)c3)s2)CC1(C)C [Example 101-7] | > 7.00
38 | COc1nc(Nc2cc(C)cc(-c3cnc(C4(O)CCC4)s3)c2)ncc1Cl [Example 102, 1-(5-{3-[(5-chloro-4-methoxypyrimidin-2-yl)amino]-5-methylphenyl}-1,3-thiazol-2-yl)-cyclobutanol] | > 7.00

Results, then the molecule that gave them:

Row | pIC50 | SMILES
39 | > 7.00 | Cc1cc(Nc2nccc(OC3CCNC(C)CC3)n2)cc(-c2cnc(C3(O)CCC3)s2)c1 (stereo not drawn) [Example 94A-20]
40 | > 7.00 | Cc1cc(Nc2nccc(OC3CCCNCC3)n2)cc(-c2cnc(C3(O)CCC3)s2)c1 (stereo not drawn) [Example 94A-21]
41 | 6.00 to 7.00 | Cc1cc(Nc2nccc(O[C@H](C)C(=O)O)n2)cc(-c2cnc(C3(O)CCC3)s2)c1 [Example 94A-22]
42 | 6.00 to 7.00 | CNCCOc1ccnc(Nc2cc(C)cc(-c3cnc(C4(O)CCC4)s3)c2)n1 [Example 94A-23]
43 | 6.00 to 7.00 | Cc1cc(Nc2nccc(OCC3CCNCC3)n2)cc(-c2cnc(C3(O)CCC3)s2)c1 [Example 94A-24]
44 | > 7.00 | Cc1cc(Nc2nccc(OCC3CNC3)n2)cc(-c2cnc(C3(O)CCC3)s2)c1 [Example 94A-27]
45 | 6.00 to 7.00 | Cc1cc(Nc2nccc(OC3CCCCC3)n2)cc(-c2cnc(C3(O)CCC3)s2)c1 [Example 94A-32]
46 | > 7.00 | Cc1cc(Nc2nccc(OC3CCC(C)(O)CC3)n2)cc(-c2cnc(C(C)(O)C(F)(F)F)s2)c1 (stereo not drawn) [Example 94B-2]
47 | > 7.00 | Cc1cc(Nc2nccc(OC3CCNCC3F)n2)cc(-c2cnc(C(C)(O)C(F)(F)F)s2)c1 (stereo not drawn) [Example 94B-4]
48 | > 7.00 | Cc1cc(Nc2nccc(O[C@H]3CCNC3)n2)cc(-c2cnc(C(C)(O)C(F)(F)F)s2)c1 (stereo partly drawn) [Example 94B-9]
49 | > 7.00 | Cc1cc(Nc2nccc(N3CCCC(=O)NC3)n2)cc(-c2cnc(C3(O)CCC3)s2)c1 [Example 94C-1]
50 | 6.00 to 7.00 | Cc1cc(Nc2nccc(OC(C)(C)C(=O)O)n2)cc(-c2cnc(C3(O)CCC3)s2)c1 [Example 95, 2-{[2-({3-[2-(1-hydroxycyclobutyl)-1,3-thiazol-5-yl]-5-methylphenyl}amino)pyrimidin-4-yl]oxy}-2-methylpropanoic acid]
51 | > 7.00 | COc1ccnc(Nc2cc(C)cc(-c3cnc(C4(O)CCC4)s3)c2)n1 [Example 100A-1]
52 | 6.00 to 7.00 | Cc1cc(Nc2ncc(Cl)cn2)cc(-c2cnc(C3(O)CCC3)s2)c1 [Example 100A-5]
53 | 6.00 to 7.00 | Cc1cc(Nc2nc(C)cc(C)n2)cc(-c2cnc(C3(O)CCC(C(=O)O)C(C)(C)C3)s2)c1 (stereo not drawn) [Example 100A-9]
54 | 6.00 to 7.00 | COc1nc(Nc2cc(C)cc(-c3cnc(C4(O)CCC(O)CC4)s3)c2)ncc1C(F)(F)F (stereo not drawn) [Example 100A-11]
55 | > 7.00 | COc1nc(Nc2cc(C)cc(-c3cnc(C4(O)CCC(C(=O)O)C(C)(C)C4)s3)c2)ncc1C (stereo not drawn) [Example 100A-13]
56 | 5.00 to 6.00 | COC(=O)C1CCC(O)(c2ncc(-c3cc(C)cc(Nc4ncc(C(F)(F)F)c(OC)n4)c3)s2)CC1(C)C (stereo not drawn) [Example 100A-27]
57 | > 7.00 | Cc1cc(Nc2ncc(F)cn2)cc(-c2cnc(C(C)(O)C(F)(F)F)s2)c1 (stereo not drawn) [Example 100B-2]
58 | 5.00 to 6.00 | Cc1cc(Nc2ncc(C3CC3)cn2)cc(-c2cnc(C(C)(O)C(F)(F)F)s2)c1 (stereo not drawn) [Example 100B-4]
59 | > 7.00 | Cc1cnc(Nc2cc(C)cc(-c3cnc(C(C)(O)C(F)(F)F)s3)c2)nc1 (stereo not drawn) [Example 100]
60 | > 7.00 | CCOC(=O)C1CCC(O)(c2ncc(-c3cc(C)cc(Nc4nccc(C(C)(C)C)n4)c3)s2)CC1C (stereo not drawn) [Example 101-1]
61 | > 7.00 | COC(=O)[C@H]1CC[C@](O)(c2ncc(-c3cc(C)cc(Nc4nccc(C(C)C)n4)c3)s2)CC1(C)C [Example 101-2]
62 | > 7.00 | COC(=O)[C@H]1CC[C@](O)(c2ncc(-c3cc(C)cc(Nc4nccc(OC(C)C)n4)c3)s2)CC1(C)C [Example 101-4]
63 | > 7.00 | COC(=O)[C@H]1CC[C@](O)(c2ncc(-c3cc(C)cc(Nc4nccc(C5CCC5)n4)c3)s2)CC1(C)C [Example 101-6]
